In US10202371B2, “Oxazolidin-2-one-pyrimidine derivatives and the use thereof as phosphatidylinositol-3-kinase inhibitors” (Novartis AG, priority 2012, dated 2019):

Assays:
[1] = target: mTOR (TSC1-/- MEFs cells) (Mus musculus (Mouse), UniProt Q9JLN9); assay: Cellular assay mTOR, phospho-T389 S6K1 SureFire in TSC1-/- MEF cells; type: cell-based; conditions: read-out: mTOR TS6K(T389)_TSC1ko/ IC50
Text: A cell based assay (384-well format) was developed for determination of compound effects on cellular mTOR activity in MEF (mouse embryo fibrobrasts) cells derived from mice lacking TSC1 (Tuberosclerosis Complex1) a potent suppressor of mTOR activity. Due to lack of TSC1, mTOR is constitutively activated resulting in permanent phoshorylation of Thr 389 of S6 kinase 1 (S6K1) which is one of the downstream targets of mTOR.
Using a SureFire Kit that enables to determine the phosphorylation of Thr389 on the S6K1 an assay was developed, validated and implemented in the Alpha-Screen format that allows the quantitative determination of phospho-T389 of S6K1 in cell lysates. […] These were in agreement with those values obtained with the biochemical mTOR ATP-binding assay enabling a quantitative comparison of potency of mTOR inhibitors.
TSC1−/− MEFs cells (Kwiatkowski, D. J., Zhang, H., Bandura, J. L., Heiberger, K. M., Glogauer, M., el-Hashemite, N., and Onda, H. (2002) Hum. Mol. Genet. 11, 525-534) were cultured in DMEM high glucose medium supplemented with 10% FBS (Invitrogen), 2 mM Glutamine and 1% (w/v) Penicillin/Streptomycin at 37° C., 5% CO2.
The SureFire kit for determination of P70S6kinase phosphorylation was purchased from Perkin Elmer (p70S6K p-T389, #TGR70S50K) and the assay was performed according to the instructions of the supplier and according to the generic method for SureFire assays. Shortly, 5 μL cell lysate per well were transferred to 384-well white proxy-plates (for luminescent readout) and mixed with […] and […] (final volume: 12 μL). After 3 h incubation in the dark at RT luminescence was read with the Envision Reader (Perkin Elmer). Untreated cells were used as control (high control) and cells treated with 3 μM BEZ235 were used as low control. The assay window between the signals obtained for the high and the low controls were defined as 100% and compound effects were expressed as percent inhibition. IC50 values were calculated from the dose response curves by graphical extrapolation.

[2] = Photostability in light stability chamber; type: physicochemical; conditions: 1.0 mg/ml in ethanol, 19620 kJ/m^2 over 13 h, 15° C., UPLC 254 nm
Protocol: Samples investigated for light stability were treated in a light stability chamber (Atlas CPS+, Serial Number 0704013). Solutions of 1.0 mg/ml in ethanol were prepared for each molecule and aliquots of 0.5 mL were dispensed into suitable micro tubes. All measurements were done in duplicate and compared to a reference wrapped in aluminium foil during light exposure. Solutions were exposed to 19620 kJ/m^2 over 13 h. Samples were kept at 15° C. during the experiment. […] The peak areas were automatically integrated, and the degradation percentage calculated as the difference between the corresponding peak area percentage of the reference sample and the average peak area percentage of the exposed samples (duplicate).

[3] = target: human PI3Kδ (Homo sapiens (Human), UniProt O00329); assay: Biochemical assay PI3Kdelta (Adapta TR-FRET); conditions: read-out: PI3Kd/IC50
Text: Catalytically active human PI3Kα, PI3Kβ, PI3Kδ, and mTOR were cloned, expressed and purtified as described ([…], Stauffer F, Brueggen J, Furet […], de Pover A, Schoemaker K, Fabbro D, Gabriel D, Simonen M, Murphy […], Garcia-Echeverria C (2008), Mol Cancer Ther. 7:1851-63 and […], Huh […], Schoemaker K, De Pover […], Garcia-Echeverria C, Voliva CF (2011), Mol. Cancer Ther. accepted). The TR-FRET AdaptaTM Universal Kinase Assay Kit was purchased from Invitrogen Corporation (Carlsbad/CA, USA) (Cat. No. PV5099). The kit contains the following reagents: Adapta Eu-anti-ADP Antibody (Europium labeled anti-ADP antibody in HEPES buffered saline, Cat. No. PV5097), Alexa Fluor® 647-labeled ADP tracer (Alexa Fluor® 647-labeled ADP tracer in HEPES buffered saline, Cat. No. PV5098), proprietary TR-FRET dilution buffer pH 7.5 (Cat. No. PV3574). PIK3CD substrate Phosphatidylinositol was obtained from Invitrogen (vesicules consisting of 2 mM PI in 50 mM HEPES pH7.5; Cat. No. PV5371). […] TR-FRET assays for protein kinases use a long-lifetime lanthanide Terbium or Europium chelates as the donor species which overcome interference from compound autofluorescence or light scatter from precipitated compounds, by introducing a delay after excitation by a flashlamp excitation source. Results are often expressed as a ratio of the intensities of the acceptor and donor fluorophores. The ratiometric nature of such a value corrects for differences in assay volumes between wells, as well as corrects for quenching effects due to colored compounds. The AdaptaTM assay can be divided into two phases: a kinase reaction phase and an ADP detection phase. In the kinase reaction phase, all kinase reaction components are added to the well and the reaction is allowed to incubate for a set period of time specific for each kinase. After the reaction, a detection solution of Eu-labeled anti-ADP antibody, Alexa Fluor® 647-labeled ADP tracer, and EDTA (to stop the kinase reaction) are added to the assay well. ADP formed by the kinase reaction will displace the Alexa Fluor® 647-labeled ADP tracer from the antibody, resulting in a decrease in TR-FRET signal. In the presence of an inhibitor, the amount of ADP formed by the kinase reaction is reduced, and the resulting intact antibody-tracer interaction maintains a high TR-FRET signal. In the AdaptaTM assay, the donor (Europium-anti-ADP antibody) is excited at 340 nm and will transfer its energy to the acceptor (Alexa Fluor® 647-labeled ADP tracer). The emission from the Alexa Fluor® 647 can be monitored with a filter centered at 665 nm because it is located between the emission peaks of the donor, which is measured at 615/620 nm. […] Reactions were stopped with 5 μL of a mixture of EDTA containing the Eu-labeled anti-ADP antibody and the Alexa Fluor® 647-labeled ADP tracer in TR-FRET dilution buffer (proprietary to IVG). […] Data are analyzed using Excel fit software or Graphpad Prism. EC50 values were derived by fitting a sigmoidal dose-response curve to a plot of assay readout over inhibitor concentration. All fits were performed with the program XLfit4 (ID Business Solutions, Guildford, UK). […] All fits were performed with the program XLfit4 (ID Business Solutions, Guildford, UK).

human PI3Kδ, sequence (O00329 2-1044): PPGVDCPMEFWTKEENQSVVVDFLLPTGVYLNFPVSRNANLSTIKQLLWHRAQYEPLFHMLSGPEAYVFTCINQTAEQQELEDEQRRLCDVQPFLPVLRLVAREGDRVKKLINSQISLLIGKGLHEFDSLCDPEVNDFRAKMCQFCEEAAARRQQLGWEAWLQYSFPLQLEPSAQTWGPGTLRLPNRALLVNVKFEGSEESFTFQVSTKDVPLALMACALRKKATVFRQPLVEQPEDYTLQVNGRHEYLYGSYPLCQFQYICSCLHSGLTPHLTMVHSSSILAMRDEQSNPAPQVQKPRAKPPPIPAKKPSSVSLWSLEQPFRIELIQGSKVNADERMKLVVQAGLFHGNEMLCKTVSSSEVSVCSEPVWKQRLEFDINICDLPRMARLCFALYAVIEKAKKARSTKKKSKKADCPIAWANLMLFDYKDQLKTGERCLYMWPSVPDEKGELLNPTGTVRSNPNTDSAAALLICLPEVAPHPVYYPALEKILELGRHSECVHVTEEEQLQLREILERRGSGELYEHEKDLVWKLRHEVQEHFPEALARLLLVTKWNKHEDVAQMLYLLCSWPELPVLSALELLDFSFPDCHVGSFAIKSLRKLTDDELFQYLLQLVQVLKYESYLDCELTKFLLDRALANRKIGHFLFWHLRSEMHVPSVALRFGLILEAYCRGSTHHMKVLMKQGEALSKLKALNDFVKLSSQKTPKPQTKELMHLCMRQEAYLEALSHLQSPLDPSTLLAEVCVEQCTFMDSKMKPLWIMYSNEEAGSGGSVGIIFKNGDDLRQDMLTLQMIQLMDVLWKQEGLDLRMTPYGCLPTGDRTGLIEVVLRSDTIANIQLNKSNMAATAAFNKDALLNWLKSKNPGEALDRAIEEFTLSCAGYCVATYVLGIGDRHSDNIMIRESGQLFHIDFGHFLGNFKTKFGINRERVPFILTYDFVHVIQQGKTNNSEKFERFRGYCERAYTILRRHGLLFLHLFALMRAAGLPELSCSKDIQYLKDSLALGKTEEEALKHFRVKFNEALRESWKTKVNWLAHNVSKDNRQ

Row | Structure (SMILES) | IC50 [1] [nM] | % degradation in photostability assay (average) [2] [%] | IC50 [3] [nM]
1 | Nc1ncc(-c2cc(N3C(=O)O[C@@H](c4ccc(OCCCO)cc4)[C@@H]3CO)nc(N3CCOCC3)n2)c(C(F)(F)F)n1 [Example 14] | 724 | 8 | 
2 | COCCOc1ccc([C@@H]2OC(=O)N(c3cc(-c4cnc(N)nc4C(F)(F)F)nc(N4CCOCC4)n3)[C@H]2CO)cc1 [Example 12] | 274 | 12 | 4
3 | COc1ccc([C@@H]2OC(=O)N(c3cc(-c4cnc(N)nc4C(F)(F)F)nc(N4CCOCC4)n3)[C@H]2CO)cc1 [Example 3, (4S,5S)-3-(2′-Amino-2-morpholino-4′-(trifluoromethyl)-[4,5′-bipyrimidin]-6-yl)-4-(hydroxymethyl)-5-(4-methoxyphenyl)oxazolidin-2-one] | 159 | 3 | 4
4 | C[C@H]1[C@H](c2ccccc2)OC(=O)N1c1cc(-c2cnc(N)nc2C(F)(F)F)nc(N2CCOCC2)n1 [Example 5] | 371 | 17 | 147
5 | Nc1ncc(-c2cc(N3C(=O)O[C@@H](c4ccccc4)[C@@H]3CO)nc(N3CCOCC3)n2)c(C(F)(F)F)n1 [Example 10] | 221 | 7 | 31
6 | CC[C@H]1[C@H](c2nccs2)OC(=O)N1c1cc(-c2cnc(N)nc2C(F)(F)F)nc(N2CCOCC2)n1 [Example 7] |  |  | 41
7 | C[C@H]1[C@H](c2nccs2)OC(=O)N1c1cc(-c2cnc(N)nc2C(F)(F)F)nc(N2CCOCC2)n1 [Example 1, (4S,5R)-3-(2′-Amino-2-morpholin-4-yl-4′-trifluoromethyl-[4,5′]bipyrimidinyl-6-yl)-4-methyl-5-thiazol-2-yl-oxazolidin-2-one] | 243 | 8 | 
8 | CC1C(c2cccnc2)OC(=O)N1c1cc(-c2cnc(N)nc2C(F)(F)F)nc(N2CCOCC2)n1 (centres unmarked) [Example 9] |  |  | 10
9 | CC[C@H]1[C@H](c2ccc(OC)cc2)OC(=O)N1c1cc(-c2cnc(N)nc2C(F)(F)F)nc(N2CCOCC2)n1 (relative stereo) [Example 2, (4S*,5S*)-3-(2′-amino-2-morpholino-4′-(trifluoromethyl)-[4,5′-bipyrimidin]-6-yl)-4-ethyl-5-(4-methoxyphenyl)oxazolidin-2-one] |  | 3 | 
10 | C[C@H]1[C@@H](c2nccs2)OC(=O)N1c1cc(-c2cnc(N)nc2C(F)(F)F)nc(N2CCOCC2)n1 [Example 11] | 747 |  | 
11 | Nc1ncc(-c2cc(N3C(=O)O[C@@H](c4ccc(OCCO)cc4)[C@@H]3CO)nc(N3CCOCC3)n2)c(C(F)(F)F)n1 [Example 13] | 1070 | 4 | 3
